# Laboratory results published in PMC12035797, “Peptidomimetics Activating the Proteasome: A New Perspective for Parkinson’s Treatment” (Journal of Medicinal Chemistry, 2025).
# Entries after “also recorded” stand apart in the source; their conditions may differ.
# Columns and labels:
# [1] = system: endogenous α-synuclein in primary cortical cultures; assay: Endogenous α-synuclein level in primary cortical cultures (Simple Western Jess); type: cell-based, mouse; settings: 2.5 μM, 7 days; statistical significance only for 1g
# Experimental: The effectiveness of the compounds has also been examined by using proteins as substrates. By means of SDS-PAGE electrophoresis, we checked the extent to which model proteins were digested by the 20S proteasome alone and after its stimulation by 10 μM modulators. […] After incubation with the enzyme in the presence of each modulator, less than 40% of synuclein remained. […] All animal experiments were performed following the protocols evaluated and approved by the Laboratory Animal Centre of the University of Helsinki (Ethics Approval License KEK24-013) and in accordance with the European Community Guidelines (Directive 2010/63/EU). […] The viability and number of neuronal cells were calculated automatically in an Automated Cell Counter (Bio-Rad), plated at a density of 1,000,000 cells per well on 6-well plates and cultured in Neurobasal A Medium (Thermo Fisher Scientific (Gibco), #12349015, Waltham, MA, USA) supplemented with GlutaMAX (Thermo Fisher Scientific (Gibco) #A1286001, Waltham, MA, USA), B-27 Supplement (Thermo Fisher Scientific (Gibco), #17504001, Waltham, MA, USA), and 200 ng/mL Primocin (Invitrogen, ant-pm-1, San Diego, CA, USA). […] Protein concentrations in the cell lysates were determined using a bicinchoninic acid (BCA) assay (Sigma-Aldrich, 3B9643-1L-KC, MO, USA) according to the manufacturer’s instructions. […]
# [2] = system: hippocampal neurons containing Lewy body-like pS129-αsyn aggregates; assay: pS129-α-synuclein aggregates in PFF-treated hippocampal neurons; type: cell-based, mouse; settings: 7 days after PFFs, 0.5 and 2.5 μM
# Description: Encouraged by the results received, we tested the ability of the modulator-CPP constructs to increase α-synuclein degradation in a cell model using primary mouse neuronal cells. The presence of Lewy-like neurites and Lewy-like bodies containing aggregated α-synuclein with phosphorylated serine 129 (pS129-αsyn) is a characteristic feature of the brains of people with Parkinson’s disease. To mimic these aggregations, we introduced a solution of preformed fibrils (PFFs) to the media of neuronal cells, which led to the induction of α-synuclein phosphorylation and its aggregation in neurons isolated from mouse embryos. PFFs are purified, prion-like fibrils of α-synuclein that are produced by expressing a recombinant monomeric protein in bacteria. Seven days after PFFs are introduced to the cells, large aggregates are visible in the cell soma, often next to the cell nucleus. We added the PFF solution to the hippocampal cells, and after an hour of incubation, we introduced solutions of the activator. After 7 days, we immunostained neuronal cells using a monoclonal antibody against the NeuN protein, which is commonly used in neuronal differentiation studies to assess their functional status. Additionally, we stained the nuclei of all incubated cells with DAPI. […] It is noteworthy that the number of cells in samples with activators was slightly higher (Figure 5), which may indicate neuroprotective properties. […] The main tool for monitoring this process was an antibody against pS129-αsyn. […] The fluorescent microscopy images (Figure 5) show the difference between the amounts of aggregated protein in the control sample and in the samples containing activators at different concentrations.
# Cells were isolated from pregnant mouse embryos at E16.0 and plated on precoated with poly-L-lysine wells of 96-well plates (PerkinElmer/Revvity Inc., Waltham, MA, USA) at 25,000 cells/well. The final medium volume was 150 μL/well. Cells were incubated at 37 °C, 5% CO2. […]
# [3] = PAMPA, blood–brain barrier mimic; type: in vitro ADME; settings: 500 μM, 37 °C, 22 h
# Description: In neurodegenerative diseases, proteins prone to aggregation accumulate in the neuronal cells. Therefore, a necessary feature of potential drugs is not only permeability across the cell membrane but also the ability to cross the blood-brain barrier (BBB). To preliminarily investigate this feature, we performed parallel artificial membrane permeation assays (PAMPA) including as positive controls propranolol and Tat47-57, known for their ability to penetrate the blood-brain barrier. Dopamine hydrobromide was included as a negative control. For comparison, we also tested compound 1a, which is devoid of a CPP sequence. […] The PAMPA was performed as previously described.[21] Briefly, a 2% solution of porcine brain lipid membrane (PBL; Avanti Polar Lipids Inc., Alabaster, AL, USA) in anhydrous dodecane was used as a mimic of the blood-brain barrier. Propranolol hydrochloride (Merck, Darmstadt, Germany) and Tat47-57 (synthesized in-house) served as positive controls, while dopamine hydrobromide (Merck, Darmstadt, Germany) was used as a negative control. Stock solutions of the tested compounds and controls were prepared at a concentration of 10 mM in deionized water and then diluted to 500 μM using 0.1 M PBS containing 5% DMSO. The donor-acceptor plate assembly was incubated at 37 °C while being shaken at 250 rpm for 22 h. Absorbance at 290 nm was measured for propranolol using an Infinite […] plate reader (Infinite […] plate reader, Tecan). For the other samples, fluorescence measurements were performed after the compounds were reacted with 0.02% fluorescamine. The rate of passive diffusion was calculated as the linear velocity of permeation (Pe). The data represent an average of three independent biological replicates.
compound,measurement,setting,value
C[C@@H](O)[C@H](NC(=O)[C@H](Cc1ccccc1)NC(=O)[C@H](Cc1ccc(O)cc1)NC(=O)CN(CCCCN)C(=O)[C@H](CCCNC(=N)N)NC(=O)[C@H](CCCNC(=N)N)NC(=O)[C@H](CCCNC(=N)N)NC(=O)[C@H](CCNC(=N)N)NC(=O)[C@H](CCCNC(=N)N)NC(=O)[C@@H](N)CCCNC(=N)N)C(=O)NCC(=O)N[C@@H](CO)C(=O)N[C@@H](CCCCN)C(=O)N[C@@H](CC(=O)O)C(=O)N[C@@H](Cc1c[nH]c2ccccc12)C(=O)N[C@@H](CCCNC(=N)N)C(=O)N[C@@H](CO)C(=O)N[C@@H](Cc1ccc(O)cc1)C(=O)N[C@@H](Cc1ccc(O)cc1)C(=O)N[C@@H](CO)C(=O)O [1g],effect on endogenous α-synuclein in primary cortical cultures,[1],able to reduce the amount of endogenous α-synuclein
same,effect on hippocampal cells containing α-synuclein aggregates,[2],effectively reduced the number of hippocampal cells containing α-synuclein; also recorded: visible dependence of the degradation ability on concentration
same,"permeability across artificial BBB membrane, PAMPA",[3],had the ability to penetrate the artificial membrane mimicking the BBB
